In the supplement of paper PMC10307832:

Compound: Nc1ccn([C@@H]2O[C@H](CO)[C@@H](O)C2(F)F)c(=O)n1 [Gemcitabine] + COc1cc2c(Oc3ccc(NC(=O)C4(C(=O)Nc5ccc(F)cc5)CC4)cc3F)ccnc2cc1OCCCN1CCOCC1 [Foretinib] (partner 0.25 µM)
Assay: relative viability (nuclei count vs DMSO), 5 days (fraction); higher = more cells survive
In short: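 Medians of duplicate plates are given as relative viability. That measure is the nuclei count in treated wells divided by the count in vehicle wells. Counts were taken on 4× images of lung cancer cell lines in 1536-well plates, 5 days after pin-tool dosing the day after seeding with one drug alone or a fixed anchor-drug dose plus five library-drug doses (not always all listed) in √10 steps.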

Row | Cell Line | relative viability (first compound 0.001 µM) | relative viability (first compound 0.003162 µM) | relative viability (first compound 0.01 µM) | relative viability (first compound 0.03162 µM) | relative viability (first compound 0.1 µM)
1 | LCLC-97TM1 | 0.886 | 0.832 | 0.597 | 0.136 | 0.118
2 | HARA | 0.965 | 0.894 | 0.853 | 0.119 | 0.0735
3 | HCC-78 | 0.502 | 0.44 | 0.416 | 0.267 | 0.241
4 | NCI-H1666 | 0.9 | 0.991 | 0.889 | 0.619 | 0.428
5 | NCI-H2347 | 0.817 | 0.731 | 0.826 | 0.492 | 0.35
6 | NCI-H838 | 1.12 | 1.26 | 0.999 | 0.435 | 0.17
7 | NCI-H2023 | 0.966 | 0.643 | 0.586 | 0.124 | 0.0582
8 | 201T | 1.06 | 0.994 | 0.914 | 0.217 | 0.177
9 | NCI-H1915 | 1.1 | 1.1 | 1.04 | 0.908 | 0.468
10 | NCI-H2009 | 1.26 | 0.938 | 0.404 | 0.185 | 0.153
11 | BEN | 0.77 | 0.575 | 0.303 | 0.112 | 0.119
12 | PC-14 | 0.953 | 0.649 | 0.293 | 0.0827 | 0.0507
13 | SK-MES-1 | 0.987 | 0.646 | 0.319 | 0.191 | 0.201
14 | NCI-H727 | 0.815 | 0.71 | 0.376 | 0.363 | 0.276
15 | NCI-H1355 | 0.858 | 0.7 | 0.247 | 0.2 | 0.187
16 | NCI-H1975 | 1.03 | 0.962 | 0.555 | 0.156 | 0.138
17 | LK-2 | 1.16 | 1.13 | 0.808 | 0.276 | 0.18
18 | NCI-H661 | 1.04 | 0.871 | 0.956 | 0.341 | 0.218
19 | HCC-366 | 0.965 | 0.989 | 0.417 | 0.0476 | 0.0377
20 | HOP-62 | 1.01 | 0.965 | 0.306 | 0.103 | 0.0927
21 | NCI-H1944 | 0.891 | 0.992 | 0.847 | 0.345 | 0.199
22 | SW 1573 | 1.03 | 0.776 | 0.32 | 0.131 | 0.0835
23 | LU99A | 0.856 | 0.791 | 0.858 | 0.819 | 0.812
24 | NCI-H647 | 1.06 | 0.279 | 0.0991 | 0.0846 | 0.0592
25 | A-427 | 1.09 | 0.948 | 0.598 | 0.181 | 0.155

Row | Cell Line | relative viability (first compound 0.001 µM) | relative viability (first compound 0.003162 µM) | relative viability (first compound 0.01 µM) | relative viability (first compound 0.03162 µM) | relative viability (first compound 0.1 µM)
26 | COR-L 105 | 1.39 | 0.884 | 1.01 | 0.371 | 0.27
27 | NCI-H441 | 1.2 | 0.711 | 0.421 | 0.21 | 0.211
28 | NCI-H2126 | 1.15 | 1.17 | 1.15 | 0.674 | 0.324
29 | EBC-1 | 0.0943 | 0.0886 | 0.0845 | 0.0844 | 0.0813
30 | NCI-H460 | 0.935 | 1.01 | 0.832 | 0.0311 | 0.0132
31 | SK-LU-1 | 0.728 | 0.441 | 0.217 | 0.168 | 0.164
32 | SW 900 | 0.697 | 0.511 | 0.117 | 0.0938 | 0.0882
33 | NCI-H322M | 0.985 | 0.383 | 0.289 | 0.272 | 0.29
34 | EKVX | 0.788 | 0.457 | 0.173 | 0.246 | 0.113
35 | NCI-H1734 | 0.781 | 0.653 | 0.287 | 0.131 | 0.126
36 | ABC-1 | 0.886 | – | 1.06 | 0.312 | 0.17
37 | NCI-H520 | 0.887 | 0.684 | 0.286 | 0.199 | 0.153
38 | EPLC-272H | 0.636 | 0.815 | 0.416 | 0.075 | 0.0466
39 | UMC-11 | 1.17 | 1.1 | 0.948 | 0.764 | 0.391
40 | NCI-H1993 | 0.561 | 0.833 | 0.61 | 0.63 | 0.588
41 | NCI-H596 | 0.635 | 0.706 | 0.287 | 0.196 | 0.309
42 | NCI-H1793 | 0.71 | 0.652 | 0.437 | 0.141 | 0.136
43 | NCI-H1563 | 0.948 | 0.916 | 0.706 | 0.566 | 0.526
44 | NCI-H1395 | 0.922 | 0.763 | 0.541 | 0.388 | 0.349
45 | NCI-H1299 | 1.09 | 1.08 | 1.09 | 1.07 | 1.08
46 | HCC-827 | 1 | 0.865 | 0.565 | 0.332 | 0.177
47 | ChaGo-K-1 | 0.901 | 0.815 | 0.428 | 0.213 | 0.191
48 | NCI-H2228 | 0.913 | 0.536 | 0.198 | 0.183 | 0.0975
49 | NCI-H2170 | 1.02 | 1.03 | 0.909 | 0.3 | 0.518
50 | EMC-BAC-2 | 1.03 | 1.03 | 0.885 | 0.201 | 0.201

Row | Cell Line | relative viability (first compound 0.001 µM) | relative viability (first compound 0.003162 µM) | relative viability (first compound 0.01 µM) | relative viability (first compound 0.03162 µM) | relative viability (first compound 0.1 µM)
51 | NCI-H2342 | 1.08 | 1 | 0.712 | 0.389 | 0.258
52 | A549 | 0.998 | 0.901 | 0.616 | 0.0177 | 0.0104
53 | NCI-H23 | 0.751 | 0.441 | 0.178 | 0.163 | 0.131
54 | RERF-LC-KJ | 0.942 | 0.89 | 0.958 | 0.799 | 0.326
55 | NCI-H358 | 0.729 | 0.168 | 0.0883 | 0.0934 | 0.0705
56 | LC-2-ad | 0.943 | 0.829 | 0.712 | 0.206 | 0.158
57 | HCC-15 | 1.12 | 1.07 | 1.01 | 0.152 | 0.0815
58 | NCI-H2405 | 0.996 | 1 | 0.676 | 0.254 | 0.229
59 | LXF-289 | 0.974 | 0.966 | 0.803 | 0.106 | 0.107
60 | CAL-12T | 1.11 | 1.03 | 0.982 | 0.707 | 0.182
61 | COR-L23 | 0.972 | 0.898 | 0.556 | 0.123 | 0.0959
62 | NCI-H1755 | 1 | 0.909 | 0.879 | 0.564 | 0.29
63 | NCI-H1437 | 1.28 | 1.14 | 0.867 | 0.442 | 0.209
64 | NCI-H2085 | 0.897 | 0.889 | 0.598 | 0.431 | 0.241
65 | IA-LM | 1.07 | 0.916 | 1.11 | 0.0445 | 0.0363
66 | H3255 | 1.04 | 0.666 | 0.782 | 0.273 | 0.229
67 | NCI-H650 | 0.998 | 0.648 | 0.197 | 0.175 | 0.175
68 | LCLC-103H | 0.78 | 0.853 | 0.663 | 0.348 | 0.233
69 | LOU-NH91 | 0.965 | 0.69 | 0.591 | 0.332 | 0.209
70 | NCI-H1650 | 1.28 | 0.666 | 0.374 | 0.179 | 0.145
71 | NCI-H3122 | 0.94 | 0.959 | 0.89 | 0.123 | 0.0966
72 | PC-3 [JPC-3] | 1.15 | 0.847 | 0.605 | 0.28 | 0.228
73 | Calu-6 | 0.847 | 0.566 | 0.403 | 0.0993 | 0.0677
74 | NCI-H1651 | 0.805 | 0.771 | 0.596 | 0.137 | 0.0964
75 | NCI-H2087 | 1.14 | 0.708 | 0.245 | 0.164 | 0.111
